Publication PMC9863607, “Combined Use of Antimicrobial Peptides with Antiseptics against Multidrug-Resistant Bacteria: Pros and Cons” (Pharmaceutics, 2023)
Where two headings read alike, the source gives them in different places. Peptide text beside a SMILES is read from it.

Assays:
A. baumannii 7226/16 = assay: microbe, parasite or virus in culture; format: cell-based, Acinetobacter baumannii
Protocol: (§1) In this regard the test plates were preincubated for 1 h at 37 °C with 0.1% bovine serum albumin (BSA) in distilled water before use. Bacteria were grown overnight at 37 °C with shaking in 2.1% Müller–Hinton broth (MHB), and then a small aliquot was transferred into the fresh portion of the same medium for another 2–3 h on the day of the experiment to provide us with the log phase bacterial suspension. Concentration of bacterial cells in suspension was evaluated based on absorbance at 620 nm and diluted down to 1 × 10^6 CFU/mL with MHB. Equal volumes of the prepared bacterial suspension in MHB and two-fold serial dilutions of the antimicrobials in 10 mM sodium phosphate (Na-P) buffer (pH 7.4) with 0.1% BSA were mixed and incubated overnight at 37 °C. The lowest concentration where no bacterial growth was observed the next day under visual examination was considered the minimal inhibitory concentration. The test was repeated at least three times, and the final MIC value was established as a median result. Each experiment was conducted in triplicates. Terasaki microplates (10 µL end volume, V-shaped bottom; Sarstedt, Nümbrecht, Germany) were used.

[1] = test system: K. pneumoniae ESBL 344/17; assay: microbe, parasite or virus in culture; format: cell-based, Klebsiella pneumoniae
Protocol: as §1

S. aureus 1399/17 = assay: microbe, parasite or virus in culture; format: cell-based, Staphylococcus aureus
Protocol: as §1

E. coli ML-35p = assay: Bacterial membrane permeability assay (nitrocefin / ONPG); format: cell-based, Escherichia coli
Description: Monitoring the ability of the test substances or their combinations to affect bacterial membranes and enhance their permeability over time was organized using a method first proposed by Prof. Lehrer’s scientific group. The idea is based on utilizing special markers that cannot spontaneously penetrate bacterial membranes until those are damaged but would be readily processed by the bacteria’s own enzymes into products of different color once they enter. Then, the product can be spectrophotometrically detected, and the dynamics of its accumulation can be associated with the scale and swiftness of the inflicted membrane impairment. The specific bacterial strain E. coli ML-35p was designed for the procedure. It is a descendant of E. coli ML-35, first identified during lac operon studies, deficient in lactopermease but constitutively expressing cytoplasmic β-galactosidase, that was modified with a plasmid vector to additionally provide it with a periplasmic β-lactamase. These modifications create the basis for the mentioned membrane damage detection approach, as there are two specifically placed enzymes, but their lactose/galactose-based substrates cannot enter bacterial cells on their own in the absence of lactopermeases.
Nitrocefin (Calbiochem-Novabiochem, San Diego, CA, USA), which can be converted by β-lactamase into a pink-colored product detectable at 486 nm once it reaches the periplasmic space, was used as a marker of the outer membrane permeability, and ONPG (o-nitrophenyl-β-D-galactoside, Sigma, St. Louis, MO, USA), producing yellow-colored o-nitrophenyl detectable at 420 nm once hydrolyzed by β-galactosidase in the bacterial cytoplasm, was likewise used as an indicator of inner membrane damage.
An overnight culture of E. coli ML-35p grown at 37 °C in 3% Trypticase soy broth (TSB) was washed of the medium twice with 10 mM Na-P buffer (pH 7.4) via a 10 min long centrifugation at 600 g and 4 °C and diluted down in the same buffer to 1 × 10^8 CFU/mL stock concentration based on the optical density (OD) of the suspension at 620 nm (the formula being concentration [CFU/mL] = OD620 × 2.5 × 10^8). The stock was preferably used immediately or kept at 4ᵒC for no more than 1 h. Experiments were carried out in 96-well clear flat-bottom plates. The 100 µL samples containing antimicrobials or their combinations in desired concentrations, 10 mM Na-P buffer (pH 7.4), 100 mM NaCl, 20 μM of nitrocefin or 2.5 mM of ONPG, and bacteria in a final concentration of 2.5 × 10^7 CFU/mL were made in duplicates. Controls included no antimicrobial substances. Bacterial suspension was the last component and was added just before the start of the measurement. OD values at the wavelengths of 420 and 486 nm were collected once per minute for 1–2 h using SpectraMax 250 Microplate Spectrophotometer (Molecular Devices, San Jose, CA, USA); samples were maintained at 37 °C with 5 s of shaking before each read.

[2] = antiseptics and surfactants, MHB, overnight 37 °C, median of 3–4 independent experiments, prontosan as polyhexanide
[3] = intact bacteria and bacteria lysed by 4×MIC of PG-1

| Compound | MIC (A. baumannii 7226/16; [2]) | MIC [1, 2] | MIC (S. aureus 1399/17; [2]) | Interference with nitrocefin degradation by bacterial β-lactamase (E. coli ML-35p; [3]) | MIC (A. baumannii 7226/16; 7226/16, 1 h) | MIC ([1]; ESBL 344/17, 1 h) | MIC (S. aureus 1399/17; 1399/17, 1 h) | other results |
| --- | --- | --- | --- | --- | --- | --- | --- | --- |
| Cocamidopropyl betaine | 0.0781 mg/mL | 0.1562 mg/mL | >50,000 µg/mL | block the degradation of nitrocephin by β-lactamase |  |  |  |  |
| CC(O)(P(=O)(O)O)P(=O)(O)O [Etidronic acid] |  |  |  | prevents said enzyme from splitting nitrocefin |  |  |  | MIC (A. baumannii 7226/16; Acinetobacter baumannii, 7226/16, antiseptics and surfactants, MHB, overnight 37 °C, median of 3–4 independent experiments, prontosan as polyhexanide, read-out: MIC): 12.5 mg/mL; MIC ([1]; Klebsiella pneumoniae, ESBL344/17, antiseptics and surfactants, MHB, overnight 37 °C, median of 3–4 independent experiments, prontosan as polyhexanide, read-out: MIC): 50 mg/mL; MIC (S. aureus 1399/17; Staphylococcus aureus, 1399/17, antiseptics and surfactants, MHB, overnight 37 °C, median of 3–4 independent experiments, prontosan as polyhexanide, read-out: MIC): 50 mg/mL; Interference with ONPG processing by cytoplasmic β-galactosidase (E. coli ML-35p; [3]): fully blocked the processing of ONPG |
| [O-][n+]1c(CO)c(CO)[n+]([O-])c2ccccc21 [Dioxydin] | 0.0312 mg/mL | 0.0156 mg/mL | 0.5 mg/mL |  |  |  |  | Effect on the membranolytic action of AMPs (E. coli ML-35p; ¼ MIC AMP + ¼ MIC antiseptic, poviargolum: outer membrane only, data not shown): did not cause significant changes in the dynamics of the membranolytic action of AMPs; Effect on permeability of bacterial membranes for chromogenic markers, substance alone (E. coli ML-35p; ¼ and ½ MIC, nitrocefin (outer) and ONPG (inner membrane), 10 mM Na-P buffer pH 7.4, 100 mM NaCl, 37 °C): did not significantly increase the permeability of bacterial membranes |
| CC[C@H](C)[C@H](NC(=O)[C@H](CCCNC(=N)N)NC(=O)[C@@H](NC(=O)[C@@H]1CCCN1C(=O)[C@@H]1CCCN1C(=O)[C@H](CCCNC(=N)N)NC(=O)[C@H](CCCNC(=N)N)NC(=O)[C@H](Cc1ccccc1)NC(=O)[C@@H]1CCCN1C(=O)[C@H](CC(C)C)NC(=O)[C@H](CCCNC(=N)N)NC(=O)[C@H](Cc1ccccc1)NC(=O)[C@@H](N)CCCNC(=N)N)[C@@H](C)CC)C(=O)N[C@@H](Cc1c[nH]cn1)C(=O)N1CCC[C@H]1C(=O)N1CCC[C@H]1C(=O)N1CCC[C@H]1C(=O)N[C@@H](Cc1ccccc1)C(=O)N[C@@H](Cc1ccc(O)cc1)C(=O)N1CCC[C@H]1C(=O)N1CCC[C@H]1C(=O)N[C@@H](Cc1ccccc1)C(=O)N[C@@H](CCCNC(=N)N)C(=O)N[C@@H](CCCNC(=N)N)C(=O)N[C@@H](Cc1ccccc1)C(=O)N[C@@H](CC(C)C)C(=O)O [ChBac3.4] (H-RFRLPFRRPPIRIHPPPFYPPFRRFL-OH; N-terminus assumed) |  |  |  |  | 6.2 µM | 3.1 µM | 3.1 µM |  |
| CC(C)C[C@H](NC(=O)[C@H](CCCNC(=N)N)NC(=O)CNC(=O)CNC(=O)[C@@H](N)CCCNC(=N)N)C(=O)N[C@H]1CSSC[C@@H](C(=O)N[C@H](C(=O)NCC(=O)N[C@@H](CCCNC(=N)N)C(N)=O)C(C)C)NC(=O)[C@H](C(C)C)NC(=O)[C@@H]2CSSC[C@H](NC(=O)[C@H](Cc3ccc(O)cc3)NC1=O)C(=O)N[C@@H](CCCNC(=N)N)C(=O)N[C@@H](CCCNC(=N)N)C(=O)N[C@@H](CCCNC(=N)N)C(=O)N[C@@H](Cc1ccccc1)C(=O)N2 [PG-1, protegrin 1] |  |  |  |  | 6.2 µM | 3.1 µM | 0.4 µM |  |
